Assay in all cases: NCI anticancer screen, dose series, 48 h
Assay [1] has as its system A549.
Assay [2] has as its system CAKI-1.
Assay [3] concerns COLO 205.
Assay [4] has as its system HCC 2998.
Assay [5] deals with HCT-116.
Assay [6] deals with HCT-15.
Assay [7] has as its system HOP-62.
The subject of assay [8] is IGROV-1.
The subject of assay [9] is K562.
The test system of assay [10] is LOX IMVI.
For assay [11], the system named is MDA-N.
For assay [12], the system named is OVCAR-4.
The subject of assay [13] is OVCAR-5.
For assay [14], the system named is PC-3.
The test system of assay [15] is RPMI-8226.
Assay [16] has as its system RXF 393.
The subject of assay [17] is SF-268.
Assay [18] relates to SK-MEL-28.
Assay [19] deals with SK-MEL-5.
For assay [20], the system named is SW-620.

Structures are written as SMILES. Where a name gives a salt, the structure may show the parent alone.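 48-hour exposure; five concentrations; linearly interpolated endpoints. GI50 is the concentration that inhibits growth by half.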 Activity calls are given as the source filed them. No stated cut-off is given here; in the data, active = GI50 up to about 1.1 µM and inactive = higher.

Regarding `O=[N+]([O-])/C(C(Cl)=C(Cl)Cl)=C(/Sc1ccccc1)N1CCCCC1`, the GI50 was > 93.5 µM (inactive) in [1]; > 22.9 µM (inactive) in [2]; > 100 µM (inactive) in assay [3]; > 100 µM (inactive) in assay [4]; 37.8 µM (inactive) in assay [5]; > 100 µM in assay [6]. Besides, the GI50 in assay [7] is > 59.3 µM (inactive); in [8], 16.5 µM (inactive); in assay [9], 23.9 µM (inactive); in assay [10], 8.45 µM (inactive); in assay [11], > 61.5 µM (inactive); in assay [12], > 66.7 µM (inactive). Further, the GI50 in [13] was > 100 µM (inactive); in [14], > 75.9 µM (inactive); in [15], > 100 µM (inactive); in [16] it was 5.08 µM (inactive); in [17] it was > 45.6 µM (inactive); in [18] it was > 100 µM (inactive). The GI50 in assay [19] is 24.5 µM (inactive); in [20], > 100 µM (inactive).
As for `COc1cc(NS(C)(=O)=O)ccc1Nc1c2ccccc2nc2c1[nH]c1ccc(NC3OC(CO)C(O)C(O)C3O)cc12` (stereo not given), the GI50 in assay [1] is < 0.0134 µM (active); in [2] it was < 0.01 µM (active); in assay [3] it was 0.26 µM (active); in assay [4], 0.169 µM (active); in assay [5], 0.0472 µM (active); in [6] it was 0.152 µM. Moreover, the GI50 was < 0.0163 µM (active) in assay [7]; 0.248 µM (active) in assay [8]; 0.191 µM (active) in assay [9]; < 0.0154 µM (active) in assay [10]; 0.474 µM (active) in assay [11]; 1.36 µM (inactive) in [12]. Besides, the GI50 in [13] is 0.444 µM (active); in assay [14], 0.0908 µM (active); in assay [15] it was 0.0973 µM (active); in assay [16] it was 0.144 µM (active); in assay [17] it was 0.018 µM (active); in assay [18], 0.122 µM (active). For the same compound, the GI50 in [19] is 0.0859 µM (active); in assay [20], < 0.0348 µM (active).
With `Cc1ccc(C2SCc3nc4ccccc4n32)cc1` (stereo not given), the GI50 is 6.43 µM (inactive) in assay [1]; 1.52 µM (inactive) in assay [2]; 1.36 µM (inactive) in [3]; 10.8 µM (inactive) in assay [4]; 3.11 µM (inactive) in assay [5]; 1.85 µM in assay [6]. Further, the GI50 in assay [7] was 3.44 µM (inactive); in [8] it was 3.18 µM (inactive); in assay [9] it was 0.671 µM (active); in assay [10] it was 4.47 µM (inactive); in [11], 0.407 µM (active); in assay [12], 8.77 µM (inactive). The GI50 in assay [13] was 6.46 µM (inactive); in assay [14], 1.88 µM (inactive); in assay [15], 5.31 µM (inactive); in assay [16], 1.98 µM (inactive); in assay [17] it was 11.7 µM (inactive); in assay [18] it was 6.62 µM (inactive). Further, the GI50 was 1.53 µM (inactive) in assay [19] and 4.84 µM (inactive) in [20].
For the compound `N#Cc1nnn(-c2ccccc2)c1O`, the GI50 is > 100 µM (inactive) in assay [1]; > 100 µM (inactive) in assay [2]; > 100 µM (inactive) in assay [3]; > 100 µM (inactive) in [4]; > 100 µM (inactive) in [5]; > 100 µM in assay [6]. The GI50 in assay [7], in assay [8], in assay [9], in assay [10], in assay [11] and in assay [12] was > 100 µM (inactive) in each case. The GI50 in [13], in assay [14], in assay [15], in assay [16], in assay [17] and in assay [18] was > 100 µM (inactive) throughout. Also, the GI50 in assay [19] and in assay [20] was > 100 µM (inactive) each time.
In the case of `CCCCC/C(=N\c1[nH]nnc1C(N)=O)OCC`, the GI50 in assay [1] was > 100 µM (inactive); in assay [2], > 100 µM (inactive); in assay [3], > 100 µM (inactive); in [4], > 100 µM (inactive); in assay [5] it was > 100 µM (inactive); in assay [6], > 100 µM. Besides, the GI50 in assay [7], in [8], in assay [9], in [10], in assay [11] and in assay [12] was > 100 µM (inactive) in each case. Also, the GI50 in assay [13], in [14], in [15], in assay [16], in [17] and in assay [18] was > 100 µM (inactive) in each case. Besides, the GI50 in assay [19] and in assay [20] was > 100 µM (inactive) each time.
Take `CC(=O)O[C@H]1CC[C@@]2(C)C(=CC[C@H]3[C@@H]4C[C@H](N5CCCC5)[C@H](OC(C)=O)[C@@]4(C)CC[C@@H]32)C1`: the GI50 is > 100 µM (inactive) in [1]; > 100 µM (inactive) in assay [2]; > 100 µM (inactive) in assay [3]; > 93.3 µM (inactive) in assay [4]; > 56.5 µM (inactive) in assay [5]; > 100 µM in assay [6]. The GI50 is > 100 µM (inactive) in [7]; > 100 µM (inactive) in assay [8]; 33.1 µM (inactive) in assay [9]; 49.2 µM (inactive) in [10]; > 51.1 µM (inactive) in assay [11]; > 100 µM (inactive) in assay [12]. Further, the GI50 in [13] was > 100 µM (inactive); in assay [14], > 100 µM (inactive); in assay [15] it was > 60.1 µM (inactive); in assay [16], > 100 µM (inactive); in [17], > 100 µM (inactive); in assay [18] it was 39.8 µM (inactive). Also, the values for the GI50 in assay [19] and in assay [20] were 23 µM (inactive) and > 100 µM (inactive), respectively.
As to `CCCC[C@@H](C)/C=C1\CN2CCC[C@H]2[C@@](C)(OCc2ccccc2)[C@@H]1O`, the GI50 was > 43.7 µM (inactive) in assay [1]; > 50 µM (inactive) in [2]; > 50 µM (inactive) in assay [3]; > 50 µM (inactive) in [4]; > 50 µM (inactive) in [5]; > 50 µM in assay [6]. In addition, the GI50 in [7] is 5.98 µM (inactive); in assay [8], > 30.6 µM (inactive); in assay [9], > 29.9 µM (inactive); in assay [10], > 50 µM (inactive); in assay [11] it was > 44 µM (inactive); in assay [12] it was > 50 µM (inactive). Also, the GI50 in [13] is > 50 µM (inactive); in assay [14] it was > 50 µM (inactive); in assay [15], > 15.5 µM (inactive); in assay [16] it was > 44.6 µM (inactive); in assay [17], > 29.4 µM (inactive); in assay [18], > 43 µM (inactive). Further, the GI50 in assay [19] and in assay [20] was > 50 µM (inactive) each time.
Consider `O=c1ccn([C@@H]2C[C@@H]2CO)c(=O)[nH]1`, for which the GI50 in assay [1] was > 100 µM (inactive); in [2] it was > 100 µM (inactive); in [3], > 100 µM (inactive); in [4], > 100 µM (inactive); in assay [5], > 100 µM (inactive); in assay [6], > 100 µM. The GI50 in assay [7], in [8], in assay [9], in [10], in assay [11] and in [12] was > 100 µM (inactive) throughout. The GI50 in [13], in assay [14], in assay [15], in assay [16], in assay [17] and in assay [18] was > 100 µM (inactive) each time. The GI50 in assay [19] and in assay [20] was > 100 µM (inactive) each time.
In the case of `CC[C@]12CN3CCc4c([nH]c5ccccc45)[C@@](C(=O)OC)(c4cc5c(cc4OC)N(C)[C@H]4[C@@](O)(C(=O)OC)[C@H](OC(C)=O)[C@]6(CC)C=CCN7CC[C@]54[C@@H]76)CC(C3)[C@H]1O2` (stereo not given in full) [VINLEUROSINE SULFATE], the GI50 is 0.394 µM (active) in [1]; 2.16 µM (inactive) in [2]; < 0.01 µM (active) in assay [3]; < 0.01 µM (active) in assay [4]; < 0.01 µM (active) in assay [5]; 0.449 µM in [6]. Further, the GI50 in [7] was 0.1 µM (active); in assay [8], 0.441 µM (active); in assay [9], < 0.01 µM (active); in assay [10] it was < 0.01 µM (active); in assay [11], < 0.01 µM (active); in assay [12], < 0.01 µM (active). Besides, the GI50 in assay [13] was 0.804 µM (active); in assay [14], 0.134 µM (active); in assay [15] it was 0.0581 µM (active); in [16] it was 0.158 µM (active); in assay [17] it was 1.02 µM (active); in assay [18], 0.254 µM (active). Besides, the GI50 in [19] is < 0.01 µM (active); in assay [20], < 0.0208 µM (active).

The values are drawn from ChEMBL document CHEMBL1201862, “PubChem BioAssay data set” (2004).
